Reference: US20260000596A1, “SEMI-SYNTHETIC RHAMNOLIPIDS” (The Procter & Gamble Company, priority 2024, published 2026)
≈ marks a conversion by molar mass, not a printed value. Where two headings read alike, the source gives them in different places.

Experiments:
Assay type in all cases: cell-based
[1] = system: Staphylococcus aureus ATCC #6538; assay: Minimum Inhibitory Concentration (MIC) Assay with Minimum Biocidal Concentration (MBC); details: for MIC / MBC: Staphylococcus aureus, ATCC6538, 24 h; for MIC: read-out: S. aureus MIC (ppm); for S. aureus MIC (ppm) / S. aureus MBC (ppm): Table 1.5; for S. aureus MIC (ppm): >=50% inhibition, 24 hrs at 35° C.; for S. aureus MBC (ppm): no visible growth; for MBC: read-out: S. aureus MBC (ppm)
Experimental: The Minimum Inhibitory Concentration (MIC) Assay is a 96-well high throughput method that determines the minimum concentration of an active required to inhibit the growth of microorganisms. Organism preparation: Compounds were evaluated against the following microorganisms: Staphylococcus aureus ATCC #6538 (American Type Culture Collection, Manassas, Virginia, USA). To prepare bacteria solutions, bacteria were streaked on Tryptic Soy Agar (TSA) and incubated at 30-35° C. for 18-24 hrs. Confluent growth was transferred to saline (0.85% NaCl) and turbidometrically adjusted to a target concentration of 10^7-10^8 CFU/ml. This inoculum solution was further diluted 1:1000 in Tryptic Soy Broth (pH 7) for assay use. Assay: Two-fold serial dilutions were prepared in Dimethylsulfoxide (DMSO, Thermo Scientific Pierce DMSO, Sequencing Grade) or sterile water for each test sample. In a sterile 96-well plate, each dilution was further diluted in broth inoculum such that each well contained 5% dilution and 95% broth inoculum. Bacteria plates were incubated on an orbital shaker (Heidolph Titramax 1000 Vibrating Platform Shaker, 200-300 rpm) for 24±2 hrs at 35° C. After incubation, the optical density (OD) of each well was measured in a spectrophotometer (Victor Nivo Multimode Plate Reader) at 600 nm. […] To determine the Minimum Biocidal Concentration (MBC), 2 ul from each well was pipetted onto neutralizing agar (Modified Letheen Agar with Tween) and incubated for 24 hrs at 30-35° C. The MBC was determined as the most dilute concentration with no visible growth.

[2] = system: Staphylococcus aureus ATCC 6538; assay: Minimal Kill Concentration Assay (MKCA), S. aureus; details: 20-minute contact time; for minimal kill concentration (20-minute contact): Staphylococcus aureus, ATCC6538, 20 min, read-out: S. aureus MKC (ppm)
Experimental: (§1) The MKC assay is a 96 well plate method to determine the minimum concentration of a test material or composition needed to kill Gram-negative and Gram-positive bacteria (Escherichia coli ATCC 8739 and Staphylococcus aureus ATCC 6538, respectively). The bacterial suspensions are prepared from 10× freezer stocks with 15% glycerol. The freezer stocks are centrifuged at 13,000×g (Eppendorf Centrifuge […] No. 541705483) for 1 minute. The supernatant is removed, and the cell pellet is resuspended in 1 mL saline (Sodium chloride solution 0.9%, Cytiva REF: Z1376), and then transferred to 9 mL saline. The target cfu/ml is 10^8, which is confirmed via serial diluting and plating on TSA plates (Tryptic Soy Agar-Sigma-Aldrich Cat #22091). Then 50 μL (25 μL if low on test materials) of bacteria is added to each well of a 96 well 0.5 mL V-Bottom plate (Greiner bio-one REF: 786201) to make a bacteria plate, one separate plate for each bacterium. The dilutions of the test compounds are prepared in a separate 96 well plate. The test compounds are tested at six dilutions in duplicates or with no replication diluted across the entire plate. The test compounds are prepared in Dimethyl Sulfoxide (Sigma Aldrich GR ACS Cat. No: MX1458-6) or sterile water at 2× the intended test concentration, and then serially diluted in the appropriate vehicle 1:2 across the plate using a multichannel. 50 μL (25 μL if low on test materials) from the test compound plate is added to each well in the bacteria plate all at once using an Integra VIAFLOW 96 channel pipette (Model: VIAFLO 96) and the Integra 300 μL Head (Part No. 6103). With addition of the 2× compounds bacteria plate, the compounds are diluted to a 1× test concentration. The addition of the test compounds to the bacteria wells starts the 20-minute contact time. The plates are mixed well using a Mix-Mate (Eppendorf SE). After 20 minutes, 1 μL from each well of the bacteria plate is transferred to premade Tryptic Soy Agar (TSA) plates (OmniTray Cell Culture Treated w/Lid Sterile, Cat. No: 165218) for spot plating using the Integra VIAFLOW 96 with the Integra 12.5 μL head (Part No. 6101). Then 4 μL from each well of the bacteria/compound plate is transferred to another 96 well plate containing 36 μL of neutralizer broth Modified Letheen Broth (BD Difco Letheen Broth, Modified REF 263010). The contact time is stopped at 20 minutes once the compound plate is neutralized. The plates are mixed well using a Mix-Mate and then 1 μL of the neutralizer+sample mix is transferred to a TSA OmniTray plate using the Integra VIAFLOW and Integra 12.5 μL head. The TSA spot plates are then incubated overnight for 20 hours at 37° C. in an Incubator. This process is done for both bacteria species. After overnight incubation, the plates are removed from the incubator and the results recorded by observing which dilutions had bacterial kill/growth. The last dilution that had kill for both replicates is recorded as the MKC. A positive control of Benzalkonium chloride (Sigma Aldrich Cat. No.: 12060-5G) and vehicle controls are always included in the test.

[3] = system: Escherichia coli ATCC 8739; assay: Minimal Kill Concentration Assay (MKCA), E. coli; details: 20-minute contact time; for MBC: Escherichia coli, ATCC8739, 20 min, read-out: E. coli MKC (ppm)
Experimental: as §1

[4] = Table 4, derivatized rhamnolipids, solvent DMSO

| SMILES | MBC ([1]; Table 5, solvent DMSO) [µg/mL] | MIC ([1]; Table 5, solvent DMSO) [µg/mL] | minimal kill concentration (20-minute contact) [2, 4] [µg/mL] | MBC [3, 4] [µg/mL] | other results |
| --- | --- | --- | --- | --- | --- |
| CCCCCCCC(O)CC(=O)O (racemic) [(±)-3-Hydroxydecanoic acid, reference compound] |  |  |  |  | MIC [1]: 1130 µg/mL (≈ 6 mM); minimal kill concentration (20-minute contact) ([2]; Table 1.4b, solvent water): 753 µg/mL; MBC ([3]; Table 1.4b, solvent water): 753 µg/mL (≈ 4 mM) |
| CCCCCC(O)CC(=O)O (racemic) [(±)-3-Hydroxyoctanoic acid, reference compound] |  |  |  |  | minimal kill concentration (20-minute contact) ([2]; Table 1.4b, solvent water): > 641 µg/mL; MBC ([3]; Table 1.4b, solvent water): > 641 µg/mL |
| CCCCCCCCCC(O)CC(=O)O (racemic) [DL-β-Hydroxylauric acid, reference compound] |  |  |  |  | S. aureus MIC (ppm) ([1]; solvent DMSO): 325 ppm; S. aureus MBC (ppm) ([1]; solvent DMSO): 650 ppm; S. aureus MKC (ppm) ([2]; Table 1.4b, solvent water): >865 ppm; E. coli MKC (ppm) ([3]; Table 1.4b, solvent water): >865 ppm |
| CCCCCCCCCCCC(O)CC(=O)O (racemic) [DL-β-Hydroxymyristic acid, reference compound] |  |  |  |  | S. aureus MIC (ppm) ([1]; solvent DMSO): 365 ppm; S. aureus MBC (ppm) ([1]; solvent DMSO): 731 ppm; S. aureus MKC (ppm) ([2]; Table 1.4b, solvent DMSO): 244 ppm; E. coli MKC (ppm) ([3]; Table 1.4b, solvent DMSO): 122 ppm |
| CCCCCCCCCCCCCC(O)CC(=O)O (racemic) [DL-β-Hydroxypalmitic acid, reference compound] |  |  |  |  | S. aureus MIC (ppm) ([1]; solvent DMSO): 102 ppm; S. aureus MBC (ppm) ([1]; solvent DMSO): 204 ppm; S. aureus MKC (ppm) ([2]; Table 1.4b, solvent DMSO): >1090 ppm; E. coli MKC (ppm) ([3]; Table 1.4b, solvent DMSO): 136 ppm |
| CCCCCCCC(CC(=O)NC)O[C@@H]1O[C@@H](C)[C@H](O)[C@@H](O)[C@H]1O[C@H]1O[C@@H](C)[C@@H](O)[C@H](O)[C@@H]1O (stereo partly drawn) [3-(((2R,3R,4R,5R,6S)-4,5-dihydroxy-6-methyl-3-(((2R,3S,4S,5S,6S)-3,4,5-trihydroxy-6-methyltetrahydro-2H-pyran-2-yl)oxy)tetrahydro-2H-pyran-2-yl)oxy)-N-methyldecanamide] | > 1970 | > 1970 | > 4940 | > 4940 |  |
| CCCCCCCC(CC(=O)NCC(CC)CCCC)O[C@@H]1O[C@@H](C)[C@H](O)[C@@H](O)[C@H]1O[C@@H]1O[C@@H](C)[C@H](O)[C@@H](O)[C@H]1O (stereo partly drawn) [3-(((2R,3R,4R,5R,6S)-4,5-dihydroxy-6-methyl-3-(((2S,3R,4R,5R,6S)-3,4,5-trihydroxy-6-methyltetrahydro-2H-pyran-2-yl)oxy)tetrahydro-2H-pyran-2-yl)oxy)-N-(2-ethylhexyl)decanamide] | 592 (≈ 1 mM) | 296 (≈ 0.5 mM) | 2960 | > 5920 |  |
| CCCCCCCC(CC(=O)NCCO)O[C@@H]1O[C@@H](C)[C@H](O)[C@@H](O)[C@H]1O[C@@H]1O[C@@H](C)[C@H](O)[C@@H](O)[C@H]1O (stereo partly drawn) [3-(((2R,3R,4R,5R,6S)-4,5-dihydroxy-6-methyl-3-(((2S,3R,4R,5R,6S)-3,4,5-trihydroxy-6-methyltetrahydro-2H-pyran-2-yl)oxy)tetrahydro-2H-pyran-2-yl)oxy)-N-(2-hydroxyethyl)decanamide] | > 2090 | > 2090 | > 5240 | > 5240 |  |
| CCCCCCCC(CC(=O)N(C)OC)O[C@@H]1O[C@@H](C)[C@H](O)[C@@H](O)[C@H]1O[C@@H]1O[C@@H](C)[C@H](O)[C@@H](O)[C@H]1O (stereo partly drawn) [3-(((2R,3R,4R,5R,6S)-4,5-dihydroxy-6-methyl-3-(((2S,3R,4R,5R,6S)-3,4,5-trihydroxy-6-methyltetrahydro-2H-pyran-2-yl)oxy)tetrahydro-2H-pyran-2-yl)oxy)-N-methoxy-N-methyldecanamide] | > 2090 | 2090 (≈ 4 mM) | > 5240 | > 5240 |  |
| CCCCCCCC(CC(=O)N(C)C)O[C@@H]1O[C@@H](C)[C@H](O)[C@@H](O)[C@H]1O[C@@H]1O[C@H](C)C(O)[C@@H](O)[C@H]1O (stereo partly drawn) [3-(((2R,3R,4R,5R,6S)-4,5-dihydroxy-6-methyl-3-(((2S,3R,4R,6R)-3,4,5-trihydroxy-6-methyltetrahydro-2H-pyran-2-yl)oxy)tetrahydro-2H-pyran-2-yl)oxy)-N,N-dimethyldecanamide] | > 508 | > 508 | > 5070 | > 5070 |  |
| CCCCCCCC(CC(=O)O)O[C@@H]1O[C@@H](C)[C@H](O)[C@@H](O)[C@H]1O[C@@H]1O[C@H](C)C(O)[C@@H](O)[C@H]1O (stereo partly drawn) [3-(((2R,3R,4R,5R,6S)-4,5-dihydroxy-6-methyl-3-(((2S,3R,4R,6R)-3,4,5-trihydroxy-6-methyltetrahydro-2H-pyran-2-yl)oxy)tetrahydro-2H-pyran-2-yl)oxy)decanoic acid] | > 1920 | > 1920 | > 4810 | > 4810 |  |
| CCCCCCCCC[C@@H](O)CC(=O)O [(3R)-3-hydroxydodecanoic acid, reference compound] |  |  |  |  | minimal kill concentration (20-minute contact) ([2]; Table 1.4b, solvent water): 865 µg/mL; MBC ([3]; Table 1.4b, solvent water): > 865 µg/mL |
| CCCCCCCC(CC(=O)N(CCCC)CCCC)O[C@@H]1O[C@@H](C)[C@H](O)[C@@H](O)[C@H]1O[C@@H]1O[C@@H](C)[C@H](O)[C@@H](O)[C@H]1O (stereo partly drawn) [N,N-dibutyl-3-(((2R,3R,4R,5R,6S)-4,5-dihydroxy-6-methyl-3-(((2S,3R,4R,5R,6S)-3,4,5-trihydroxy-6-methyltetrahydro-2H-pyran-2-yl)oxy)tetrahydro-2H-pyran-2-yl)oxy)decanamide] | 296 (≈ 0.5 mM) | 296 (≈ 0.5 mM) | 2960 | 5920 (≈ 10 mM) |  |
| CCCCCCCC(CC(=O)NCCO[Si](C)(C)C(C)(C)C)O[C@@H]1O[C@@H](C)[C@H](O)[C@@H](O)[C@H]1O[C@@H]1O[C@@H](C)[C@H](O)[C@@H](O)[C@H]1O (stereo partly drawn) [N-(2-((tert-butyldimethylsilyl)oxy)ethyl)-3-(((2R,3R,4R,5R,6S)-4,5-dihydroxy-6-methyl-3-(((2S,3R,4R,5R,6S)-3,4,5-trihydroxy-6-methyltetrahydro-2H-pyran-2-yl)oxy)tetrahydro-2H-pyran-2-yl)oxy)decanamide] | 637 (≈ 0.999 mM) | 319 (≈ 0.5 mM) | > 6370 | > 6370 |  |
| CCCCCCCC(CC(=O)NC1CCCCC1)O[C@@H]1O[C@@H](C)[C@H](O)[C@@H](O)[C@H]1O[C@@H]1O[C@@H](C)[C@H](O)[C@@H](O)[C@H]1O (stereo partly drawn) [N-cyclohexyl-3-(((2R,3R,4R,5R,6S)-4,5-dihydroxy-6-methyl-3-(((2S,3R,4R,5R,6S)-3,4,5-trihydroxy-6-methyltetrahydro-2H-pyran-2-yl)oxy)tetrahydro-2H-pyran-2-yl)oxy)decanamide] | > 2250 | > 2250 | > 5620 | > 5620 |  |
